Source: article PMC8437281 (PLoS ONE, 2021)
Values joined by “and” are separate entries in the source; they are usually repeats but may differ in a detail not shown here. Equal values may be shown once. Read-outs that look alike come from different tables or passages of the source. Where no end group is shown, it is not given here.

What was measured:
C. difficile 630 [1] = assay: microbe, parasite or virus in culture; settings: Clostridioides difficile, 630, 24 h
C. difficile 630 [2] = settings: lowest concentration killing ≥99.9%, after 24 h incubation plated on BHI agar, 37°C, anaerobic, triplicate
C. difficile 630 [3] = settings: C. difficile 630, BHI broth, 24 h, 37°C, anaerobic, OD 600 nm; triplicate

Compound	MIC (C. difficile 630 [1])	Minimum bactericidal concentration (MBC) (C. difficile 630 [2]) [µM]	MIC (C. difficile 630 [3]) [µM]	Reduction of viability of Caco-2 cells (Caco-2 cells; Caco-2) [%]	Viability of Caco-2 cells (Caco-2 cells; Caco-2, 33.94 µM) [%]
CN[C@H](CC(C)C)C(=O)N[C@H]1C(=O)N[C@@H](CC(N)=O)C(=O)N[C@H]2C(=O)N[C@H]3C(=O)N[C@H](C(=O)N[C@H](C(=O)O)c4cc(O)cc(O)c4-c4cc3ccc4O)[C@H](O)c3ccc(c(Cl)c3)Oc3cc2cc(c3O[C@@H]2O[C@H](CO)[C@@H](O)[C@H](O)[C@H]2O[C@H]2C[C@](C)(N)[C@H](O)[C@H](C)O2)Oc2ccc(cc2Cl)[C@H]1O [Vancomycin]	0.488 µg/mL and 0.34 µM	–	–	–	–
KWKLFKKIGAVLKVL-NH2 [CM]	–	2.21	2.21	–	–
KWKLFKKIGAVLKVLA-NH2 [CM-A]	–	4.24	1.06	11	40
